Test system: NHBE cells
Assay: Biolog metabolic array: substrate use by NHBE cells with or without CA09 infection
Format: cell-based, human
Conditions: for Substrate use, 590 nm absorbance normalized to zero hour, 0 hr: Biolog PMM2, 0 hr; for Substrate use, 590 nm absorbance normalized to zero hour, 1 hr: Biolog PMM2, 1 hr; for Substrate use, 590 nm absorbance normalized to zero hour, 5 hr: Biolog PMM2, 5 hr; for Substrate use, 590 nm absorbance normalized to zero hour, 7 hr: Biolog PMM2, 7 hr
[1] = Control (uninfected) NHBE cells
[2] = Virus (CA09-infected NHBE cells, MOI 1)
[3] = Virus: CA09-infected NHBE cells, MOI 1, Biolog PMM2
[4] = Virus (CA09-infected, MOI 1) NHBE cells

Row | Structure (SMILES) | 590 nm absorbance normalized to zero hour (substrate use), 1 hr [1] | 590 nm absorbance normalized to zero hour (substrate use), 2 hr [1] | 590 nm absorbance normalized to zero hour (substrate use), 3 hr [1] | 590 nm absorbance normalized to zero hour (substrate use), 4 hr [1] | 590 nm absorbance normalized to zero hour (substrate use), 6 hr [1] | 590 nm absorbance normalized to zero hour (substrate use), 8 hr [1] | 590 nm absorbance normalized to zero hour (substrate use), 9 hr [1] | 590 nm absorbance normalized to zero hour (substrate use), 10 hr [1] | 590 nm absorbance normalized to zero hour (substrate use), 11 hr [1] | Substrate use, 590 nm absorbance normalized to zero hour, 1 hr [1] | Substrate use, 590 nm absorbance normalized to zero hour, 5 hr [1] | Substrate use, 590 nm absorbance normalized to zero hour, 7 hr [1] | 590 nm absorbance normalized to zero hour (substrate use), 1 hr [3] | 590 nm absorbance normalized to zero hour (substrate use), 2 hr [3] | 590 nm absorbance normalized to zero hour (substrate use), 3 hr [3] | 590 nm absorbance normalized to zero hour (substrate use), 4 hr [3] | 590 nm absorbance normalized to zero hour (substrate use), 5 hr [3] | 590 nm absorbance normalized to zero hour (substrate use), 6 hr [3] | 590 nm absorbance normalized to zero hour (substrate use), 7 hr [3] | 590 nm absorbance normalized to zero hour (substrate use), 8 hr [3] | other results
1 | OC[C@@H](O)[C@@H](O)CO [i-Erythritol] | 1.76 | 2.33 | 2.67 | 2.83 | 5.19 | 3.84 | 4.30 | 4.08 | 4.22 | 1.76 | 3.31 | 3.78 | 0.23 | 0.29 | 0.32 | 0.34 | 0.39 | 0.41 | 0.43 | 0.45 | 590 nm absorbance normalized to zero hour (substrate use), 0 hr [1]: 1.00; Substrate use, 590 nm absorbance normalized to zero hour, 0 hr [1]: 1.00; 590 nm absorbance normalized to zero hour (substrate use), 0 hr [2]: 1.00; 590 nm absorbance normalized to zero hour (substrate use), 1 hr [2]: 0.23; 590 nm absorbance normalized to zero hour (substrate use), 2 hr [2]: 0.29; 590 nm absorbance normalized to zero hour (substrate use), 3 hr [2]: 0.32; 590 nm absorbance normalized to zero hour (substrate use), 4 hr [2]: 0.34; 590 nm absorbance normalized to zero hour (substrate use), 5 hr [2]: 0.39; 590 nm absorbance normalized to zero hour (substrate use), 6 hr [2]: 0.41; 590 nm absorbance normalized to zero hour (substrate use), 7 hr [2]: 0.43; 590 nm absorbance normalized to zero hour (substrate use), 8 hr [2]: 0.45; 590 nm absorbance normalized to zero hour (substrate use), 9 hr [2]: 0.49; 590 nm absorbance normalized to zero hour (substrate use), 10 hr [2]: 0.50; 590 nm absorbance normalized to zero hour (substrate use), 11 hr [2]: 0.53; 590 nm absorbance normalized to zero hour (substrate use), 0 hr [3]: 1.00; 590 nm absorbance normalized to zero hour (substrate use), 9 hr [3]: 0.49; 590 nm absorbance normalized to zero hour (substrate use), 10 hr [3]: 0.50; 590 nm absorbance normalized to zero hour (substrate use), 11 hr [3]: 0.53
2 | O[C@H]1[C@H](O)[C@@H](O)[C@H](O)[C@@H](O)[C@H]1O [m-Inositol] | 1.63 | 2.13 | 3.87 | 3.78 | 3.01 | 3.42 | 3.81 | 3.89 | 3.64 | 1.63 | 3.07 | 3.55 | 0.51 | 0.66 | 0.77 | 0.81 | 0.94 | 0.99 | 1.04 | 1.10 | 590 nm absorbance normalized to zero hour (substrate use), 0 hr [1]: 1.00; Substrate use, 590 nm absorbance normalized to zero hour, 0 hr [1]: 1.00; Substrate use, 590 nm absorbance normalized to zero hour, 11 hr (Control (uninfected) NHBE cells, Biolog PMM2, 11 hr): 4.22; 590 nm absorbance normalized to zero hour (substrate use), 0 hr [2]: 1.00; 590 nm absorbance normalized to zero hour (substrate use), 1 hr [2]: 0.51; 590 nm absorbance normalized to zero hour (substrate use), 2 hr [2]: 0.66; 590 nm absorbance normalized to zero hour (substrate use), 3 hr [2]: 0.77; 590 nm absorbance normalized to zero hour (substrate use), 4 hr [2]: 0.81; 590 nm absorbance normalized to zero hour (substrate use), 5 hr [2]: 0.94; 590 nm absorbance normalized to zero hour (substrate use), 6 hr [2]: 0.99; 590 nm absorbance normalized to zero hour (substrate use), 7 hr [2]: 1.04; 590 nm absorbance normalized to zero hour (substrate use), 8 hr [2]: 1.10; 590 nm absorbance normalized to zero hour (substrate use), 9 hr [2]: 1.20; 590 nm absorbance normalized to zero hour (substrate use), 10 hr [2]: 1.24; 590 nm absorbance normalized to zero hour (substrate use), 11 hr [2]: 1.34; 590 nm absorbance normalized to zero hour (substrate use), 0 hr [3]: 1.00; 590 nm absorbance normalized to zero hour (substrate use), 9 hr [3]: 1.20; 590 nm absorbance normalized to zero hour (substrate use), 10 hr [3]: 1.24; 590 nm absorbance normalized to zero hour (substrate use), 11 hr [3]: 1.34
3 | O=c1[nH]cnc2c1ncn2[C@@H]1O[C@H](CO)[C@@H](O)[C@H]1O [Inosine] | 3.56 | 5.67 | 2.78 | 4.11 | 2.23 | 4.46 | 6.41 | 6.92 | 5.14 | 3.56 | 4.02 | 6.19 | 1.16 | 1.78 | 2.23 | 2.45 | 3.06 | 3.30 | 3.54 | 3.88 | 590 nm absorbance normalized to zero hour (substrate use), 1 hr [4]: 1.16; 590 nm absorbance normalized to zero hour (substrate use), 2 hr [4]: 1.78; 590 nm absorbance normalized to zero hour (substrate use), 3 hr [4]: 2.23; 590 nm absorbance normalized to zero hour (substrate use), 4 hr [4]: 2.45; 590 nm absorbance normalized to zero hour (substrate use), 5 hr [4]: 3.06; 590 nm absorbance normalized to zero hour (substrate use), 6 hr [4]: 3.30; 590 nm absorbance normalized to zero hour (substrate use), 7 hr [4]: 3.54; 590 nm absorbance normalized to zero hour (substrate use), 8 hr [4]: 3.88; 590 nm absorbance normalized to zero hour (substrate use), 9 hr [4]: 4.33; 590 nm absorbance normalized to zero hour (substrate use), 10 hr [4]: 3.83; 590 nm absorbance normalized to zero hour (substrate use), 11 hr [4]: 4.20; 590 nm absorbance normalized to zero hour (substrate use), 9 hr [3]: 4.33; 590 nm absorbance normalized to zero hour (substrate use), 10 hr [3]: 3.83; 590 nm absorbance normalized to zero hour (substrate use), 11 hr [3]: 4.20

Reference: patent publication US11083725B2 (priority 2014, dated 2021)
